Tests used:
Lactobacilli = test: Continuous culture chemostat with faecal inocula and antimicrobials; assay type: cell-based; settings: 1 gl^−1 in medium
Experimental: (§1) (i) Continuous culture system: Three chemostats are set up in a parallel; each is maintained under nitrogen gas, at 37° C., pH 6.5 and a dilution rate of 0.066 h^−1. These conditions are set to resemble conditions typically found in the distal region of the human colon. The chemostats are fed with a control growth medium which comprised (gl^−1 in distilled water): yeast extract 2, peptone water 2, NaCl 0.1, K2HPO4 0.04, KH2PO4 0.04, MgSO4.7H2O 0.01, CaCl2.H2O 0.01, NaHCO3 2, Tween 80 2, hemin 0.05, Vitamin K1 0.01, cysteine.HCl 0.5, bile salts 0.5, glucose 0.4, starch 3, pectin 2 and arabinogalactan 1. The medium is autoclaved at 121° C. for 30 min and, whilst still hot, placed under nitrogen gas. After the medium has cooled, 1 gl^−1 of filter sterilised tetracycline or 1 gl^−1 of filter sterilised nystatin is aseptically added to the medium reservoir. Control chemostats with no antimicrobials added are also run. […]
(§2) (iii) Microbial culture techniques: A sample is taken from each fecal slurry used as inocula and 1 ml samples are also removed from each chemostat when the fermentation system has reached steady state (after 164 h). […] After 24-48 h of Incubation aerobic colonies are counted and after 48-72 h of incubation anaerobic plates are enumerated. […]

yeasts = test: as above; assay type: cell-based; settings: 1 gl^−1 in medium, compared to control chemostats
Experimental: as §1, §2

C[C@@H]1[C@H](O)[C@@H](C)/C=C/C=C/CC/C=C/C=C/C=C/C=C/C(O[C@H]2O[C@H](C)[C@@H](O)[C@H](N)[C@@H]2O)CC2O[C@](O)(CC(O)C(O)CCC(O)CC(O)CC(O)CC(=O)O[C@H]1C)CC(O)C2C(=O)O (some centres unmarked) [nystatin]
effect on lactobacilli (Lactobacilli): reduction in lactobacilli
effect on yeasts (yeasts): yeasts are inhibited

Source: US20060165670A1, “Synbiotic combination” (priority 2003, published 2006)
